Non-standard residues stand in square brackets, D forms with d. Residues, ends and D or L forms follow the SMILES beside them. pY = N[C@@H](Cc1ccc(OP(=O)(O)O)cc1)C(=O)O
Columns and labels:
Assay in all cases: biochemical
Type in all cases: binding
PTPN6(SH2dom.C-term.) = target: T1, PTPN6(SH2dom.C-term.) (Homo sapiens, UniProt P29350)
T1 construct: SH2dom.C-term. denotes SH2 domain closest to C-terminus of protein; made in house; host or cells: HEK293 (transient transfection, unpurified extract)
T1 sequence (P29350 110-213 limits assumed): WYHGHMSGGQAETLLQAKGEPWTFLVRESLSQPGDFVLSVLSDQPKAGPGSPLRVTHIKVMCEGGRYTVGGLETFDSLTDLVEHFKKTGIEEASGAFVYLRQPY

APS (SH2B2) = target: T2, APS (SH2B2) (Homo sapiens, UniProt O14492)
T2 construct: the DNA-tagged SH2 domain concentrations used in this study were <0.1 nM; made in house; host or cells: HEK293 (transient transfection; unpurified extract)

BLNK = target: T3, BLNK (Homo sapiens, UniProt Q8WV28)
T3 construct: the DNA-tagged SH2 domain concentrations used in this study were <0.1 nM; made in house; host or cells: HEK293 (transient transfection; unpurified extract)
T3 sequence (Q8WV28 346-453 limits assumed): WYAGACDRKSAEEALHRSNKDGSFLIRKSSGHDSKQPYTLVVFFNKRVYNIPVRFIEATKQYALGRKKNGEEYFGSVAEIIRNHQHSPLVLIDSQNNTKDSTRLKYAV

BRK = target: T4, BRK (Homo sapiens, UniProt Q13882)
T4 construct: the DNA-tagged SH2 domain concentrations used in this study were <0.1 nM; made in house; host or cells: HEK293 (transient transfection; unpurified extract)

GRB10 = target: T5, GRB10 (Homo sapiens, UniProt Q13322)
T5 construct: the DNA-tagged SH2 domain concentrations used in this study were <0.1 nM; made in house; host or cells: HEK293 (transient transfection; unpurified extract)
T5 sequence (Q13322 493-574 limits assumed): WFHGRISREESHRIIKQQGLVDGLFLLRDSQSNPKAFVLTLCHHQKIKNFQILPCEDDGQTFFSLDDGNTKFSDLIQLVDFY

ITK = target: T6, ITK (Homo sapiens, UniProt Q08881)
T6 construct: the DNA-tagged SH2 domain concentrations used in this study were <0.1 nM; made in house; host or cells: HEK293 (transient transfection, unpurified extract)
T6 sequence (Q08881 239-338 limits assumed): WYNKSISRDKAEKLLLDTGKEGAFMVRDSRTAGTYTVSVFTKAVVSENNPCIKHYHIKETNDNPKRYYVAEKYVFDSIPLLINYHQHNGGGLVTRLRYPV

MIST = target: T7, MIST (Homo sapiens, UniProt Q7Z7G1)
T7 construct: the DNA-tagged SH2 domain concentrations used in this study were <0.1 nM; made in house; host or cells: HEK293 (transient transfection, unpurified extract)
T7 sequence (Q7Z7G1 309-419 limits assumed): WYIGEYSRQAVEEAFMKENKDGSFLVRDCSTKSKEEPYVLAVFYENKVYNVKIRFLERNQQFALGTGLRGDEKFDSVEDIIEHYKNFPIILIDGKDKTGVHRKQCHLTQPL

SLP76 = target: T8, SLP76 (Homo sapiens, UniProt Q13094)
T8 construct: made in house; host or cells: HEK293 (transient transfection), unpurified extract
T8 sequence (Q13094 1-533): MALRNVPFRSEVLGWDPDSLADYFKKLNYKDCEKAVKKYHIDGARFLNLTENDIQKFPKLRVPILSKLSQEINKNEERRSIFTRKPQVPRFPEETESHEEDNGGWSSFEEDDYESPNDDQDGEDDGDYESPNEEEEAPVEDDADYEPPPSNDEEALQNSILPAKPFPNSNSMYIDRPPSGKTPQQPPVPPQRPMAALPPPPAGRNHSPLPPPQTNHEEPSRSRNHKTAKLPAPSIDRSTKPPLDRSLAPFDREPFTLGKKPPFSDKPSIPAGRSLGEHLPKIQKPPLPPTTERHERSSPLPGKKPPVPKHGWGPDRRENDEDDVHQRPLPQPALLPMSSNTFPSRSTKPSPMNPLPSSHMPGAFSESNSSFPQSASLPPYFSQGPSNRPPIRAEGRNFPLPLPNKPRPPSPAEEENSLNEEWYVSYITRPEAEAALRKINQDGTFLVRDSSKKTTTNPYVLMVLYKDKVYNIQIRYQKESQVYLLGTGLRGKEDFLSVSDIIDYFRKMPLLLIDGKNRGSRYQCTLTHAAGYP

STAP1 = target: T9, STAP1 (Homo sapiens, UniProt Q9ULZ2)
T9 construct: made in house; host or cells: HEK293 (transient transfection), unpurified extract
T9 sequence (Q9ULZ2 1-295): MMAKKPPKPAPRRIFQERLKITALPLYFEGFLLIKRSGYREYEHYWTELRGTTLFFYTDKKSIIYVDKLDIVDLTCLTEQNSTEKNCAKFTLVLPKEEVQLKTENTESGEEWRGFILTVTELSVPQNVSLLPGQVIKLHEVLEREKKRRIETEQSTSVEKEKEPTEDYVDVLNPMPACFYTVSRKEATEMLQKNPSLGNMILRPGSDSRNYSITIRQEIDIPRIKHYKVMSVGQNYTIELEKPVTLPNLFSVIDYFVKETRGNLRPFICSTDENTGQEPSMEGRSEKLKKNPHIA

STAP2 = target: T10, STAP2 (Homo sapiens, UniProt Q9UGK3)
T10 construct: made in house; host or cells: HEK293 (transient transfection), unpurified extract
T10 sequence (Q9UGK3 1-403): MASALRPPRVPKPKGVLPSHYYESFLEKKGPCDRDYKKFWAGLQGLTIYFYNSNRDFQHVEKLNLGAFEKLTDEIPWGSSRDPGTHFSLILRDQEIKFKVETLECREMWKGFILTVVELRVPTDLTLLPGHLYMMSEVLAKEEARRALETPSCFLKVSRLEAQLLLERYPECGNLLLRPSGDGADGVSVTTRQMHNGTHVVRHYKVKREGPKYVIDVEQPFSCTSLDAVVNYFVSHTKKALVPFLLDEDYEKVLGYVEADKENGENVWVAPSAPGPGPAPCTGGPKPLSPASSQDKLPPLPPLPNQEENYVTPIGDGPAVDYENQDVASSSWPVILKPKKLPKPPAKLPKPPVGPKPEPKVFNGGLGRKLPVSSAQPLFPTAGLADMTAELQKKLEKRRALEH

RASA1(SH2dom.C-term.) = target: T11, RASA1(SH2dom.C-term.) (Homo sapiens, UniProt P20936)
T11 construct: SH2dom.C-term. denotes SH2 domain closest to C-terminus of protein; made in house; host or cells: HEK293 (transient transfection, unpurified extract)
T11 sequence (P20936 351-441 limits assumed): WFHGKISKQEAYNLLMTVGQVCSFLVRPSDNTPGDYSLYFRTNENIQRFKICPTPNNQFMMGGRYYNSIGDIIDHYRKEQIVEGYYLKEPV

DAPP1 = target: T12, DAPP1 (Homo sapiens, UniProt Q9UN19)
T12 construct: the DNA-tagged SH2 domain concentrations used in this study were <0.1 nM; made in house; host or cells: HEK293 (transient transfection; unpurified extract)
T12 sequence (Q9UN19 35-129 limits assumed): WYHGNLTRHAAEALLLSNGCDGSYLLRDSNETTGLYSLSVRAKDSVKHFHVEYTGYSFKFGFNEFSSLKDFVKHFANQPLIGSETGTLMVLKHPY

SOCS4 = target: T13, SOCS4 (Homo sapiens, UniProt Q8WXH5)
T13 construct: made in house; host or cells: HEK293 (transient transfection), unpurified extract
T13 sequence (Q8WXH5 1-440): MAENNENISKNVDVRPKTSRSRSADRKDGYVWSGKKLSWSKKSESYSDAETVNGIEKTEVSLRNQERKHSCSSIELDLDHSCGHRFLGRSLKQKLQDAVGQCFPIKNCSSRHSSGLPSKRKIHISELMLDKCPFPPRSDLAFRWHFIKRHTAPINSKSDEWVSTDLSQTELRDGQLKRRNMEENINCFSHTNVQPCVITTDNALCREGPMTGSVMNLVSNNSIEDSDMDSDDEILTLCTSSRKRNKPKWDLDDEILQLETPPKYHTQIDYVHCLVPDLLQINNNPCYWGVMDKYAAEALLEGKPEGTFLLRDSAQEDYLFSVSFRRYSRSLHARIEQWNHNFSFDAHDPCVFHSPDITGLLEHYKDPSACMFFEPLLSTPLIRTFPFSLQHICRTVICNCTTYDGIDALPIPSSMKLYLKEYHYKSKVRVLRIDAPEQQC

T4 sequence (Q13882 78-170 limits assumed): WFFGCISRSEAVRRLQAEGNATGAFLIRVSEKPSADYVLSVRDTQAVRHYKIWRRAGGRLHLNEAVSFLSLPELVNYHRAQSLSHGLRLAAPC
T2 sequence (O14492 417-515 limits assumed): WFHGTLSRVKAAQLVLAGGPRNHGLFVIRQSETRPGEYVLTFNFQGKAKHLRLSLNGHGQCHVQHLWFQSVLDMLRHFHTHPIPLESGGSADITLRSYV

CC[C@H](C)[C@H](NC(=O)[C@H](CCC(=O)O)NC(=O)[C@H](CCC(N)=O)NC(=O)[C@H](CCC(=O)O)NC(=O)[C@@H](NC(=O)[C@H](C)NC(C)=O)[C@@H](C)O)C(=O)N[C@H](C(=O)N[C@@H](Cc1ccc(OP(=O)(O)O)cc1)C(=O)N[C@@H](C)C(=O)N[C@@H](CCC(=O)O)C(=O)N[C@@H](CC(C)C)C(=O)N[C@@H](CC(N)=O)C(=O)N[C@@H](CC(C)C)C(=O)N[C@@H](CCC(N)=O)C(=O)N[C@@H](CCCCN)C(N)=O)[C@@H](C)O (Ac-ATEQEIT[pY]AELNLQK-NH2)
Kd (PTPN6(SH2dom.C-term.)): 1490 ± 666 nM

CC(=O)N[C@@H](CC(=O)O)C(=O)N[C@@H](CC(=O)O)C(=O)N[C@@H](CC(=O)O)C(=O)N[C@@H](Cc1ccc(OP(=O)(O)O)cc1)C(=O)N[C@@H](CC(=O)O)C(=O)N[C@@H](CC(=O)O)C(=O)N[C@H](C(=O)N[C@@H](CC(=O)O)C(N)=O)C(C)C [Ac-DDDpYDDVD-NH2] (Ac-DDD[pY]DDVD-NH2)
Kd (APS (SH2B2)): 8780 ± 971 nM
Kd (BLNK): 137 ± 22.4 nM
Kd (BRK): 226 ± 200 nM
Kd (GRB10): 1260 ± 1160 nM
Kd (ITK): 1450 ± 153 nM
Kd (MIST): 32.9 ± 6.7 nM
Kd (SLP76): 1410 ± 432 nM

CC[C@H](C)[C@H](NC(=O)[C@H](CC(C)C)NC(=O)[C@@H](NC(=O)[C@H](CC(N)=O)NC(=O)[C@H](CCC(=O)O)NC(=O)[C@H](Cc1ccc(OP(=O)(O)O)cc1)NC(=O)[C@H](CO)NC(=O)[C@H](CC(N)=O)NC(=O)[C@H](C)NC(C)=O)C(C)C)C(=O)N[C@@H](C)C(=O)N[C@@H](CCCCN)C(N)=O (Ac-ANS[pY]ENVLIAK-NH2)
Kd (STAP1): 2780 ± 615 nM
Kd (STAP2): 38900 ± 7930 nM

CSCC[C@H](NC(=O)[C@@H]1CCCN1C(=O)[C@H](CCC(=O)O)NC(=O)[C@H](C)NC(=O)[C@H](Cc1ccc(OP(=O)(O)O)cc1)NC(=O)[C@H](CC(=O)O)NC(=O)[C@H](CO)NC(=O)[C@@H]1CCCN1C(=O)[C@H](CC(=O)O)NC(=O)[C@H](Cc1ccccc1)NC(=O)CNC(C)=O)C(=O)N[C@@H](CC(=O)O)C(=O)N[C@@H](C)C(=O)N[C@H](C(=O)N[C@H](C(N)=O)C(C)C)C(C)C (Ac-GFDPSD[pY]AEPMDAVV-NH2)
Kd (RASA1(SH2dom.C-term.)): 4.11 ± 0.48 nM

CC(=O)N[C@@H](CC(C)C)C(=O)N[C@@H](CC(C)C)C(=O)N1CCC[C@H]1C(=O)N[C@@H](CC(C)C)C(=O)N[C@@H](CC(=O)O)C(=O)N[C@@H](CCCCN)C(=O)N[C@@H](CC(=O)O)C(=O)N[C@@H](Cc1ccc(OP(=O)(O)O)cc1)C(=O)N[C@@H](Cc1ccc(OP(=O)(O)O)cc1)C(=O)N[C@H](C(=O)N[C@H](C(=O)N[C@@H](CCCNC(=N)N)C(=O)N[C@@H](CCC(=O)O)C(=O)N1CCC[C@H]1C(=O)NCC(=O)N[C@@H](CCC(N)=O)C(N)=O)C(C)C)C(C)C
Kd (DAPP1): 41300 ± 5960 nM
Kd (SOCS4): 1.91 ± 0.5 nM

Source: publication PMC12951562, “SH2scan: Mapping SH2 Domain-Ligand Binding Selectivity for Inhibitors and Degraders” (Journal of Medicinal Chemistry, 2026)
